Measured values: ChEMBL document CHEMBL1201862, “PubChem BioAssay data set” (2004)
Calls of active or inactive are those of the source.

Experiments:
Nonstructural protein 1 = Nonstructural protein 1 (Influenza A virus, UniProt Q194T2); type: functional, Influenza A virus (A/California/07/2009(H1N1))
[1] = C. albicans growth with fluconazole, confirmation, fluorescence, retest (AID 2467); type: functional, cell-based
[2] = THP-1 cell cytotoxicity, dose response, cytotoxicity control for Vif-APOBEC3G degradation inhibitor project, THP-1 cells (AID 1117359); type: functional; settings: Human immunodeficiency virus 1, THP-1
Bcl-2-like protein 10 = target: T1, Bcl-2-like protein 10 (Homo sapiens, UniProt Q9HD36); assay: displacers of TR3 peptide from Bcl-B, primary screen, selectivity assay for Bfl-1 inhibitor project, biochemical, fluorescence polarization, FITC-TR3 peptide (AID 748);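 further: fluorescence polarization from a fluorescein-labelled TR3 peptide binding purified Bcl-B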
T1 sequence (Q9HD36 whole entry): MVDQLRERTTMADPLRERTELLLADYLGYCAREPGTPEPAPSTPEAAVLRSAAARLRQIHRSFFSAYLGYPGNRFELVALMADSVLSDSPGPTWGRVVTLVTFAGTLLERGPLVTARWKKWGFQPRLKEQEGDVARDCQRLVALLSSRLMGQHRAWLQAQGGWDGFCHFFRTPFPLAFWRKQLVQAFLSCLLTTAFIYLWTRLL

[3] = NIH-3T3 fibroblast cytotoxicity, dose response, cytotoxicity control, cell-based, fluorescence, Alamar Blue, secondary assay (AID 2327); type: functional;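 further: NIH-3T3 mouse fibroblasts cultured with fluconazole at 8 µg/mL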
Estrogen receptor = target: T2, Estrogen receptor (Homo sapiens, UniProt P03372);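 further: potency for inhibiting coactivator peptide recruitment to the receptor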
T2 sequence (P03372 whole entry): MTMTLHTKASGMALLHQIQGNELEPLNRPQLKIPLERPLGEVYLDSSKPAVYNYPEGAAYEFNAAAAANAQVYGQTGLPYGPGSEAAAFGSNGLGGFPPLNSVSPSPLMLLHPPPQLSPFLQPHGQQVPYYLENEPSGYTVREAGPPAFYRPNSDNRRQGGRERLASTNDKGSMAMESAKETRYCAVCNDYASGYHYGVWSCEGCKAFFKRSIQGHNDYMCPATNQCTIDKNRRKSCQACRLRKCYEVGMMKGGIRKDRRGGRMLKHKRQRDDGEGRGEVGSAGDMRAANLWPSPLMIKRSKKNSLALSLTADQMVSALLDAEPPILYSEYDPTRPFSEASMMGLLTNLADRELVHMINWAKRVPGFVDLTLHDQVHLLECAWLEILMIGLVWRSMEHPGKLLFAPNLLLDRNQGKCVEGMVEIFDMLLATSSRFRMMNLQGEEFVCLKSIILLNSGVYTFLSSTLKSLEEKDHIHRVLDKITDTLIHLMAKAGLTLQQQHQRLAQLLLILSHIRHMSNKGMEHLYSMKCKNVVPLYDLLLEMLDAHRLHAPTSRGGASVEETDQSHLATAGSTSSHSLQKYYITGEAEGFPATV

INS1 = assay: beta cell apoptosis inhibitors, cytokine rescue, dose response, luminescence, retest (AID 449756); type: functional, cell-based; settings: Rattus norvegicus;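 further: cell death triggered by IL-1 beta plus TNF-alpha plus IFN-gamma mixture; protective hits raise ATP signal compared with cytokine alone wells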
Cytochrome P450 2C9 = Cytochrome P450 2C9 (Homo sapiens, UniProt P11712); settings: Potency
Cytochrome P450 2C9, sequence (P11712 whole entry): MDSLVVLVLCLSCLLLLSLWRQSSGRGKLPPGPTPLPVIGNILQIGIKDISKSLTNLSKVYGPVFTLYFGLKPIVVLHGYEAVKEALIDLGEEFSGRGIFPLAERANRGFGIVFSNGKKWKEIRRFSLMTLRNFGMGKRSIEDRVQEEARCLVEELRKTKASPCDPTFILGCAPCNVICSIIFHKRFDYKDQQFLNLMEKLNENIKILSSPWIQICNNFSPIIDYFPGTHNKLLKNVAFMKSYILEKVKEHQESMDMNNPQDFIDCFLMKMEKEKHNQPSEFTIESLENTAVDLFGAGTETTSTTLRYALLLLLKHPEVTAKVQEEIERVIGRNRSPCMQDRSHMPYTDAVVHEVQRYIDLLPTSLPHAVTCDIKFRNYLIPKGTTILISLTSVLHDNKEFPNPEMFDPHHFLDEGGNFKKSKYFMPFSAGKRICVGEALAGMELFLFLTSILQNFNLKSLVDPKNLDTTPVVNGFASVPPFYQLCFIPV

[4] = Artemis endonuclease inhibitor potency, dose response, biochemical, fluorescence intensity (AID 720701); type: functional;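 further: Artemis endonuclease enzyme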
[5] = growth suppression of PTEN-null colon cells, dose response, cell-based, HCT116 PTEN knockout (AID 1047); type: functional;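 further: HCT116 colon tumor cells with PTEN knocked out; cells exposed to compound for 60 hours before readout; potency for loss of cell viability measured by luminescence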
[6] = Luminescence Cell-Based Dose Confirmation HTS to Identify Activators of 5'UTR Stem-Loop Driven Alpha-Synuclein mRNA Translation in H4 Neuroglioblastoma Cells. [Related pubchem assays: 1829 (Project Summary), 1814 (Primary HTS)]; type: functional
[7] = target: DNA damage-inducible transcript 3 protein (Mus musculus, UniProt P35639); type: functional, Cricetulus griseus
DNA damage-inducible transcript 3 protein, sequence (P35639 whole entry): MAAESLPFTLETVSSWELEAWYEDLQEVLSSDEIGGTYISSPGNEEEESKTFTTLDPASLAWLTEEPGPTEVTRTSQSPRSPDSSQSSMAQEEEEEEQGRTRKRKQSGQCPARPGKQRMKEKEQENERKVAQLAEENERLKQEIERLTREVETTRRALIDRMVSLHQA

[8] = Luminescence Cell-Based Dose Retest to Confirm Inhibitors of Cancer Stem Cells. [Related pubchem assays (depositor defined):AID2717, AID2721]; type: functional; settings: Homo sapiens
H4 = assay: Luminescence Cell-Based Dose Response HTS to Identify Activators of 5'UTR Stem-Loop Driven Prion Protein mRNA Translation in H4 Neuroglioblastoma Cells. [Related pubchem assays: 1829 (Project Summary), 1814 (Primary HTS)]; type: functional; settings: Homo sapiens
[9] = growth suppression of beta-catenin-knockout colon cells, dose response, cell-based, HCT116, human colon tumor (AID 1045); type: functional;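 further: HCT116 colon tumor cells with beta catenin knocked out; cells exposed to compound for 60 hours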
[10] = Luminescence Cell-Based Dose Response HTS to Identify Activators of Luciferase Translation or Activity in H4 […] Cells. [Related pubchem assays: 1829 (Project Summary), 1814 (Primary HTS)]; type: functional
[11] = CRF-BP/CRF-R2 complex antagonists, dose response, cell-based, uHTS hits, 384-well (AID 651639); type: functional, Homo sapiens; settings: read-out: IC50_Mean
Aminopeptidase N = Aminopeptidase N (Plasmodium falciparum FcB1/Columbia, UniProt O96935); assay: P. falciparum M1AAP inhibitors, biochemical, fluorogenic H-Leu-NHMec substrate, 1536-well (AID 1445); design: species or system Plasmodium falciparum 3D7, 3D7
Aminopeptidase N, sequence (O96935 whole entry): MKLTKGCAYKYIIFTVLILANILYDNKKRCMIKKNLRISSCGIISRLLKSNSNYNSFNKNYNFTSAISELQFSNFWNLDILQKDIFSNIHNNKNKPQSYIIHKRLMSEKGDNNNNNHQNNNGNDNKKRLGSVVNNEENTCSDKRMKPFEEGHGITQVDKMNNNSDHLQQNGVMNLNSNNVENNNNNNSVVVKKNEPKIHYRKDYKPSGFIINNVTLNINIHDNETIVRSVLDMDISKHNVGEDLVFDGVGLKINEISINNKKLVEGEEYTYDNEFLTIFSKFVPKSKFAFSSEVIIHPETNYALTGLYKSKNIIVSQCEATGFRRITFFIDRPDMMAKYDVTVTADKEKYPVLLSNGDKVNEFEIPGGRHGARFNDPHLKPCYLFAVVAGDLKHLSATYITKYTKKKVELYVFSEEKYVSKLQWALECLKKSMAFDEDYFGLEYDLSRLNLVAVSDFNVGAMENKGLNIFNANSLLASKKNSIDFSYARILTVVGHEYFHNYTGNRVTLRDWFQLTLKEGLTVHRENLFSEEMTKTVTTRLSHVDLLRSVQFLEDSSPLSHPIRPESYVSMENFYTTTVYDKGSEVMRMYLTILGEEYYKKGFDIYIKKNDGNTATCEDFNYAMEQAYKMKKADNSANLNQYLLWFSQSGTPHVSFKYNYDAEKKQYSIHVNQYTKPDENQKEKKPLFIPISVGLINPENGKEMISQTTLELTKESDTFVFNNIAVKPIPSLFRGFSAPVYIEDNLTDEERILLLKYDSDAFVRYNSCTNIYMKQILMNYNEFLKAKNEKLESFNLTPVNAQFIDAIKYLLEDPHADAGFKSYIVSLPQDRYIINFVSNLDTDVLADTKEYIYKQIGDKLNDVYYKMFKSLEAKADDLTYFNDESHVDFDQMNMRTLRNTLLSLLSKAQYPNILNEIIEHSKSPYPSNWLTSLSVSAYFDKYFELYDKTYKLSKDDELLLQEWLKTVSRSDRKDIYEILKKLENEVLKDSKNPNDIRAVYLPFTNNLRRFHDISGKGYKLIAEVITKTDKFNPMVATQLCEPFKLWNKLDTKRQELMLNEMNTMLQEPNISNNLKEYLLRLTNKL

[12] = target: T3, Corticotropin-releasing factor receptor 2/Corticotropin-releasing factor-binding protein (Homo sapiens, UniProt P24387+Q13324); assay: Dose Response confirmation of uHTS hits for small molecule antagonists of the CRF-binding protein and CRF-R2 receptor complex.; type: functional; settings: read-out: IC50_Mean
T3 sequence (Q13324 whole entry): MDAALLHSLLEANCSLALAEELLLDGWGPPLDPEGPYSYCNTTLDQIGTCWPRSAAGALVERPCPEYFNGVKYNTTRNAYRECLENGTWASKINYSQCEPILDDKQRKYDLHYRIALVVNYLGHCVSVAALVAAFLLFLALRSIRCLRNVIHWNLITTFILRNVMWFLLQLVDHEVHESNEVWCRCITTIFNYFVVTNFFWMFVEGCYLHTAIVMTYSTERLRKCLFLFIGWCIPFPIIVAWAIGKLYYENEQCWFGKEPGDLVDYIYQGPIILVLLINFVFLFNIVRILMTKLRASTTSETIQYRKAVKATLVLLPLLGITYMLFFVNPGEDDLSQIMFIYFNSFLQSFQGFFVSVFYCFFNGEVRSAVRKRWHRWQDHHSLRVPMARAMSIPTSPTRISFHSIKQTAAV
T3 sequence (P24387 whole entry): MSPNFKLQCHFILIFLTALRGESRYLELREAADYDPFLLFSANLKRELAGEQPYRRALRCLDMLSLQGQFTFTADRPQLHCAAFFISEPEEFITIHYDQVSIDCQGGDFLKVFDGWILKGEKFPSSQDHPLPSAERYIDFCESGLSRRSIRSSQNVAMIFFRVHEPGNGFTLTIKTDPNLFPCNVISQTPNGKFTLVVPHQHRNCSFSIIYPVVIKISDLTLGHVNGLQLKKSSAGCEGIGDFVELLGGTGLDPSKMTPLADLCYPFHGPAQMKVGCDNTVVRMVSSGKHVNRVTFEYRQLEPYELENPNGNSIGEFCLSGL

[13] = target: T3, Corticotropin-releasing factor receptor 2/Corticotropin-releasing factor-binding protein; assay: activators of CRF receptor 2 with binding protein – uHTS hits, confirmation (AID 602473); type: functional; settings: read-out: EC50_Mean
[14] = target: G-protein coupled receptor 35 (Homo sapiens, UniProt Q9HC97); assay: GPR35 antagonists blocking zaprinast-driven arrestin recruitment, primary screen, imaging, U2OS, beta-arrestin-GFP, zaprinast agonist (AID 2058); type: functional;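 further: antagonist potency meaning inhibition of agonist-induced arrestin redistribution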
[15] = target: Scavenger receptor class B member 1 (Mus musculus, UniProt Q61009); assay: inhibitors of SR-BI mediated HDL lipid uptake, dose response, ldlA[mSR-BI] cells, fluorescence, cherry pick (AID 493194); type: functional, cell-based;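 further: cellular uptake of fluorescent DiI-labeled HDL measured as cell fluorescence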
Scavenger receptor class B member 1, sequence (Q61009 whole entry): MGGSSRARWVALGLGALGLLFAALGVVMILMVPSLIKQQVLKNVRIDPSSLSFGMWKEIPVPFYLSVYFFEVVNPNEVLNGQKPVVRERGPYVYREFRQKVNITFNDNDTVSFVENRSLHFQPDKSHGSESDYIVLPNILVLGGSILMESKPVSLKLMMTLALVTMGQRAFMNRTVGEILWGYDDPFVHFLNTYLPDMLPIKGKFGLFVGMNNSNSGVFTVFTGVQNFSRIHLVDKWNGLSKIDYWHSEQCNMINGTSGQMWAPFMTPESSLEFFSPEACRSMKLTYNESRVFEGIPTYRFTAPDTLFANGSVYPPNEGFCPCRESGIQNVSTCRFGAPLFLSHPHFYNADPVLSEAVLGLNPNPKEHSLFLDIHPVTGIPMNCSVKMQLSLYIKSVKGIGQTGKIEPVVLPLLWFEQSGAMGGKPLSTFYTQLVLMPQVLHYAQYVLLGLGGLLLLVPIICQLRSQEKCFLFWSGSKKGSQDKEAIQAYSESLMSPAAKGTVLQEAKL

[16] = target: G-protein coupled receptor 55 (Homo sapiens, UniProt Q9Y2T6); assay: GPR55 agonists via beta-arrestin recruitment, primary screen, imaging, U2OS cells, beta-arrestin-GFP redistribution (AID 1961); type: functional
G-protein coupled receptor 55, sequence (Q9Y2T6 whole entry): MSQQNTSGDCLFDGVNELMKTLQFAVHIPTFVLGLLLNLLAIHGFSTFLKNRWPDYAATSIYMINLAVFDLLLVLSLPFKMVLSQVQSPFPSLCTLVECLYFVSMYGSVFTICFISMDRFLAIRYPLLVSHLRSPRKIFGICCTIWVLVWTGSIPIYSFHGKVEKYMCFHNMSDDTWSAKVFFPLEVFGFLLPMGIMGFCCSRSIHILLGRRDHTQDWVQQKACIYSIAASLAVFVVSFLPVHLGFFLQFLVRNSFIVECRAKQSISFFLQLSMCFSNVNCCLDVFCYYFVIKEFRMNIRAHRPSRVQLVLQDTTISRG

[17] = target: T4, Heat shock factor protein 1 (Mus musculus, UniProt P38532); assay: inhibition of MG132-induced HSE-luciferase signal, confirmation, cell-based, NIH3T3, luminescence, dose retest (AID 2382); type: functional;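 further: NIH3T3 fibroblasts with HSF1-driven luciferase reporter stressed by proteasome inhibitor MG132; luminescence from HSF1-driven luciferase expression after 8 hours of MG132 stress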
T4 sequence (P38532 whole entry): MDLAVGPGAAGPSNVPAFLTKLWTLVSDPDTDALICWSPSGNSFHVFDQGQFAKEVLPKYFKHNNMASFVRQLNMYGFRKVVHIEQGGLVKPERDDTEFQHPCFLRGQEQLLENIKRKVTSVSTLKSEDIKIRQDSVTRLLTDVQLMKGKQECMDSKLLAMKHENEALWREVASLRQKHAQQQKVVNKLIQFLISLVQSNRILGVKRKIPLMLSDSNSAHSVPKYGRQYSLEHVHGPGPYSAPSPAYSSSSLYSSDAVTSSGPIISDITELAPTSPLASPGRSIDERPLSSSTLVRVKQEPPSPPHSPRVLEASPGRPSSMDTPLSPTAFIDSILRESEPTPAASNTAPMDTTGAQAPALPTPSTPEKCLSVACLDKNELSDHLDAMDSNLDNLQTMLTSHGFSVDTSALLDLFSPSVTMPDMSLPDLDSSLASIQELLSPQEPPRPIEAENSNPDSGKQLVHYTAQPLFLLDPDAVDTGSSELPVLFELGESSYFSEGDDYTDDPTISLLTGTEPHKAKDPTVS

Paired box protein Pax-8 = Paired box protein Pax-8 (Homo sapiens, UniProt Q06710); assay: inhibitors of PAX8-driven TPO luciferase reporter, dose response, RMG-I cells, cherry-pick (AID 687027); type: functional, cell-based;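 further: luciferase reporter driven by Pax8 target thyroperoxidase promoter measured by SteadyGlo luminescence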
Paired box protein Pax-8, sequence (Q06710 whole entry): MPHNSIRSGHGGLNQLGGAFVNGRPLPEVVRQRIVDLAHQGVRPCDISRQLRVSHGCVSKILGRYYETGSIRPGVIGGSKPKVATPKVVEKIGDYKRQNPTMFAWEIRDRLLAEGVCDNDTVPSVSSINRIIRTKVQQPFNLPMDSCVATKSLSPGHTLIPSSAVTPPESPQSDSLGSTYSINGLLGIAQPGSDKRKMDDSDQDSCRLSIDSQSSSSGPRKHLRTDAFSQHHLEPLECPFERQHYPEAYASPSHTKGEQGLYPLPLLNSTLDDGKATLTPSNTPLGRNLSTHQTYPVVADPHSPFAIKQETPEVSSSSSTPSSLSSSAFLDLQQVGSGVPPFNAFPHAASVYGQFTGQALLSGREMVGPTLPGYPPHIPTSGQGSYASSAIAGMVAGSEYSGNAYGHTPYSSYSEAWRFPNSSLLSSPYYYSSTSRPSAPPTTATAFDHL

[18] = HepG2 cell cytotoxicity, dose response, cytotoxicity control for Shn3 inhibitor project, CellTiter-Glo, cherry-picked (AID 624134); type: functional, cell-based
[19] = insulin promoter down-regulators in MIN6 cells, imaging, high-content screening, mouse beta cells (AID 1628); type: functional
[20] = Shn3 3'UTR reporter inhibitors, dose response, cell-based, Clone20 osteoblasts, firefly luciferase, cherry-picked (AID 624132); type: functional;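 further: firefly luciferase luminescence from reporter carrying the Shn3 3'UTR in osteoblasts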
[21] = cytotoxicity in MIN6 insulinoma cells, dose response, cytotoxicity control, cell-based, mouse insulinoma (AID 2122); type: functional;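 further: confirmatory high-throughput counterscreen run to flag cytotoxic compounds; mouse MIN-6 beta cells carrying an insulin promoter eGFP reporter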
Aspartyl aminopeptidase = Aspartyl aminopeptidase (Plasmodium falciparum 3D7, UniProt Q8I2J3)
Aspartyl aminopeptidase, sequence (Q8I2J3 whole entry): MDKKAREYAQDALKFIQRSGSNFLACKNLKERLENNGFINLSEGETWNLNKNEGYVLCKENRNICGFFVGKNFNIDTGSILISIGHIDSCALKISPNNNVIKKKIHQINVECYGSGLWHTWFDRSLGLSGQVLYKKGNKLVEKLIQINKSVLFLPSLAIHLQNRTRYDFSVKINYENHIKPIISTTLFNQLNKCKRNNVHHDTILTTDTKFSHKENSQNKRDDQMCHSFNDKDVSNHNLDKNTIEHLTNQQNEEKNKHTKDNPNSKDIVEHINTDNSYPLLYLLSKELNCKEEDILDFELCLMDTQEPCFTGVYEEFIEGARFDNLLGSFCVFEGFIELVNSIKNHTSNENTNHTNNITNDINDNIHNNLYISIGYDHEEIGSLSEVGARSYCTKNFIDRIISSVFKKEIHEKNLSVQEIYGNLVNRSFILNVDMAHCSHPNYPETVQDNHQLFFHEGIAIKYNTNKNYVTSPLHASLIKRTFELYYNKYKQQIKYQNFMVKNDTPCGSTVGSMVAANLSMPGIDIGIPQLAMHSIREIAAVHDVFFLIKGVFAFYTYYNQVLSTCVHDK

Procathepsin L = Procathepsin L (Homo sapiens, UniProt P07711)
Hexokinase = Hexokinase (Trypanosoma brucei, UniProt Q38C41); assay: Confirmation assay for inhibitors of Trypanosoma brucei hexokinase 1-Analogue-first series. [Related pubchem assays (depositor defined):AID1430, AID1632, AID2516, AID2560, AID2579, AID2600, AID449725, AID492951]; type: functional
Hexokinase, sequence (Q38C41 whole entry): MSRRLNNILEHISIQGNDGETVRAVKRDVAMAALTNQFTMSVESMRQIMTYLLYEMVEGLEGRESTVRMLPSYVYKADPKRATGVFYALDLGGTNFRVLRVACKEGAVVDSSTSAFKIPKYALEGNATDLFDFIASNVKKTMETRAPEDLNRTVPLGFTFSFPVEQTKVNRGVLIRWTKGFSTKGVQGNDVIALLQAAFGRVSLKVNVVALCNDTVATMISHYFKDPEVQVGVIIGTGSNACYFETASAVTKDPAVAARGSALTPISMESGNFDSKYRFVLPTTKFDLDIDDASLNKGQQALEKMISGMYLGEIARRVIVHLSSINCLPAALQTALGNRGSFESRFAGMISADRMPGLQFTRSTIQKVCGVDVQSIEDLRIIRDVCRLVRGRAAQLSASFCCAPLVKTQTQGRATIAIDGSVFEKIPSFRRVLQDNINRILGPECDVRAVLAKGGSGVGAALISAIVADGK

[22] = target: C-C chemokine receptor type 6 (Homo sapiens, UniProt P51684); assay: CCR6 receptor antagonists, dose response, cell-based, luminescent beta-arrestin readout (AID 504728); type: functional
C-C chemokine receptor type 6, sequence (P51684 whole entry): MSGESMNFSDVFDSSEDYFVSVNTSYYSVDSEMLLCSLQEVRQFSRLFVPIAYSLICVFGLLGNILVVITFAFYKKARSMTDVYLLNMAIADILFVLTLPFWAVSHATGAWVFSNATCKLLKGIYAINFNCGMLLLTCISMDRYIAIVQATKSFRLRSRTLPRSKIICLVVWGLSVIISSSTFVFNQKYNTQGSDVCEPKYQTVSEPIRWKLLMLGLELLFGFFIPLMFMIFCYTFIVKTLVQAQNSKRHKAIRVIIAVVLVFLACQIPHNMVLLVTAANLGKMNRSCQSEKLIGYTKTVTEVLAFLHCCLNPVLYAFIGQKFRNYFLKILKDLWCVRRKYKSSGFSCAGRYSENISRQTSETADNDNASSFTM

Beta-galactosidase = Beta-galactosidase (Escherichia coli, UniProt Q8VNN2); assay: beta-galactosidase enzyme inhibitors and activators, dose response, artefact control for CCR6 antagonist project, biochemical, E. coli enzyme, set 3 (AID 504712); type: functional
Cytochrome P450 2D6 = Cytochrome P450 2D6 (Homo sapiens, UniProt P10635); assay: qHTS Assay for Inhibitors and Substrates of Cytochrome P450 2D6. [Related pubchem assays: 410 ]; type: ADME; settings: read-out: Potency
Cytochrome P450 2D6, sequence (P10635 whole entry): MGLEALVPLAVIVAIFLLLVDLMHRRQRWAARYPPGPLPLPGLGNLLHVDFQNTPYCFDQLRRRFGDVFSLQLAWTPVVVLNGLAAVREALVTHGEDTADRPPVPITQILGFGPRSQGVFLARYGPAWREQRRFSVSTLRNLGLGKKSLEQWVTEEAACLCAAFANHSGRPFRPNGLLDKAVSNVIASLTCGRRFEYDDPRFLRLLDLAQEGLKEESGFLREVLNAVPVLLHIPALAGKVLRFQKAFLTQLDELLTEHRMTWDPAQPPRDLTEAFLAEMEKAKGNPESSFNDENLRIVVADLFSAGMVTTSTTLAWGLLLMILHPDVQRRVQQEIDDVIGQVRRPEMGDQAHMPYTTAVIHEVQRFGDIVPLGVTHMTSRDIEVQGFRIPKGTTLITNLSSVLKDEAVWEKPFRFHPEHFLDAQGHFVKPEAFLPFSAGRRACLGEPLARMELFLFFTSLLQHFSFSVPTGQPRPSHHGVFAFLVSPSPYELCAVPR

Cc1ccc2nc(O)c(C3C(C#N)=C(N)Oc4c3ccc3cccnc43)cc2c1 (stereo unspecified)
IC50 (Nonstructural protein 1): 46.8 µM (active)
EC50 [1]: 2.17 µM (active)
CC50 [2]: 2.48 µM (active)
IC50 (Bcl-2-like protein 10): 66.8 µM (inactive)
EC50 [3]: > 160 µM (inconclusive)
IC50 (Estrogen receptor): 19.5 µM (active)
AC50 (INS1): 1.27 µM (active)

COc1ccc(-c2coc3ccc(O[C@@H]4O[C@@H](COC(C)=O)[C@@H](OC(C)=O)[C@@H](OC(C)=O)[C@H]4OC(C)=O)cc3c2=O)cc1
AC50 (Cytochrome P450 2C9): 20 µM (inconclusive)

O=C(Cc1ccccc1)Nc1ccc(N2CCCC2)cc1
IC50 [4]: 6.03 µM (active)
IC50 (Bcl-2-like protein 10): 31.2 µM (active)

C=C(C(=O)c1ccccc1)C(C)C(=C)C(=O)c1ccccc1
EC50 [5]: 1.65 µM (active)
EC50 [6]: 7.98 µM (active)
Absolute IC50 (CHOP) [7]: 10 µM
AC50 [8]: 2.33 µM (active)
EC50 (H4): > 120 µM (not active)
EC50 [9]: 1.14 µM (active)
EC50 [10]: > 120 µM (not active)
AC50 (INS1): 7.97 µM (active)

O=C(ON=C1CCN(c2ccc([N+](=O)[O-])cc2)CC1)c1ccccc1
IC50 [11]: > 20 µM (inactive)
IC50 (Aminopeptidase N): 45.2 µM (active)
IC50 [12]: 2.74 µM (active)
EC50 [13]: > 53 µM (inactive)

CC(=O)Nc1sc(/C(C#N)=C/c2ccc(Cl)c(Cl)c2)nc1-c1ccc(C)cc1
IC50 [14]: 0.534 µM (active)

COc1cccc(N(CC(=O)NC2CCCC2)C(=O)Cn2nnc(-c3ccc(C)cc3)n2)c1
AC50 [15]: 234 µM (active)

COc1ccc(F)cc1C(=O)C1CCCN(Cc2cccn2-c2ccccn2)C1 (stereo unspecified)
EC50 [16]: 8.93 µM (active)
EC50 [17]: > 195 µM (not active)

O=C(Nc1ccc(Cl)cc1)Nc1ccc(N2CCCC2)c(S(=O)(=O)Nc2ccccc2Cl)c1
AC50 [15]: 23.5 µM (active)
AC50 (Paired box protein Pax-8): 5.13 µM (active)
AC50 [18]: 7.06 µM (active)
IC50 [19]: 4.47 µM (active)
AC50 [20]: 5.2 µM (active)
AC50 (INS1): 6.99 µM (active)
IC50 [21]: > 16 µM (inactive)

CC1=C([N+](=O)[O-])C(c2ccc(O)c(O)c2)NC(=O)N1 (stereo unspecified)
IC50 (Aspartyl aminopeptidase): 0.864 µM (active)
IC50 (Procathepsin L): > 59.6 µM (not active)

COc1ccc(NC(=O)c2ccc(Cl)cc2C(=O)O)cc1
IC50 (Hexokinase): > 25 µM (inactive)

C/C(CCC12CC3CC(CC(C3)C1)C2)=N\NC(N)=S
IC50 [22]: 50.4 µM (inactive)
IC50 (Beta-galactosidase): > 66.6 µM (inactive)

COc1ccc2c(c1OC)C(=O)O[C@@H]2[C@H]1c2cc3c(cc2CCN1C)OCO3 [HYDRASTINE]
AC50 (Cytochrome P450 2C9): 25.1 µM (inconclusive)
AC50 (Cytochrome P450 2D6): 39.8 µM (inconclusive)

C[C@H](CCC(=O)O)[C@H]1CC[C@H]2[C@@H]3[C@@H](O)C[C@@H]4C[C@H](O)CC[C@]4(C)[C@H]3CC[C@]12C [URSODIOL]
IC50 (Aminopeptidase N): 2.6 µM (active)
